# Experimental data: patent publication US12454529B2, “Piperazine cyclic ureas” (SIRONAX LTD., priority 2020, dated 2025)
# System: HT-29 cells
# Assay: HT-29 cell necrosis/necroptosis inhibition (TNF-α + SMAC mimetic + zVAD-FMK; CellTiter-Glo cell viability)
# Assay type: cell-based
# Settings: Homo sapiens, HT-29, 20 h, read-out: EC50 (Cell activity; Necrosis/Necroptosis Inhibitory Activity, Compounds 143-323)
# Procedure, shortened: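 Necroptosis was driven by TNF-α 10 ng/ml plus SMAC mimetic 6 μM and zVAD-FMK 10 μM in serum-free medium, with compounds as a 10-point threefold titration. After 20 h at 37 °C, ATP-based luminescence was read; EC50 values are geometric means of duplicate curves.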
row,Compound,EC50 [nM]
1,"Cc1ncc(C#N)n1-c1nc(N2CCN(C(=O)N3N=CC[C@H]3c3cc(F)cc(C#N)c3)CC2)ncc1F [Compound 148, 1-(2-(4-((S)-5-(3-cyano-5-fluorophenyl)-4,5-dihydro-1H-pyrazole-1-carbonyl)piperazin-1-yl)-5-fluoropyrimidin-4-yl)-2-methyl-1H-imidazole-5-carbonitrile]",0.1 to 100

# Same assay, conditions: Homo sapiens; HT-29 cells, TNF-α 10 ng/ml + SMAC mimetic 6 μM + zVAD-FMK 10 μM, 20 hours; geometric mean, 10 points in duplicate; read-out: EC50 (Cell activity; Necrosis/Necroptosis Inhibitory Activity, Compounds 1-142)
row,Compound,EC50 [nM]
1,"N#Cc1cc(F)cc([C@@H]2CC=NN2C(=O)N2CCN(c3nccc(-c4cc[nH]n4)n3)CC2)c1 [Compound 34, (5)-3-(1-(4-(4-(1H-pyrazol-3-yl)pyrimidin-2-yl)piperazine-1-carbonyl)-4,5-dihydro-1H-pyrazol-5-yl)-5-fluorobenzonitrile]",0.1 to 100
2,Cc1nc(C)n(-c2nc(N3CCN(C(=O)N4N=CC[C@H]4c4cc(F)cc(F)c4)CC3)ncc2F)n1 [Compound 46],0.1 to 100
3,"CCOC(=O)c1nc(C)n(-c2nc(N3CCN(C(=O)N4N=CC[C@H]4c4cc(F)cc(C#N)c4)CC3)ncc2F)n1 [Compound 129, ethyl (S)-1-(2-(4-(5-(3-cyano-5-fluorophenyl)-4,5-dihydro-1H-pyrazole-1-carbonyl)piperazin-1-yl)-5-fluoropyrimidin-4-yl)-5-methyl-1H-1,2,4-triazole-3-carboxylate]",0.1 to 100
4,"Cc1c(-c2nc(N3CCN(C(=O)N4N=CC[C@H]4c4cc(F)cc(C#N)c4)CC3)ncc2F)nnn1CC(N)=O [Compound 79, (S)-2-(4-(2-(4-(5-(3-cyano-5-fluorophenyl)-4,5-dihydro-1H-pyrazole-1-carbonyl)piperazin-1-yl)-5-fluoropyrimidin-4-yl)-5-methyl-1H-1,2,3-triazol-1-yl)acetamide]",0.1 to 100
5,"COCCn1nc(C)c(-c2nc(N3CCN(C(=O)N4N=CC[C@H]4c4cc(F)cc(F)c4)CC3)ncc2F)c1C [Compound 120, (S)-(5-(3,5-difluorophenyl)-4,5-dihydro-1H-pyrazol-1-yl)(4-(5-fluoro-4-(1-(2-methoxyethyl)-3,5-dimethyl-1H-pyrazol-4-yl)pyrimidin-2-yl)piperazin-1-yl)methanone]",0.1 to 100
6,"O=C(N1CCN(c2nccc(-c3cc[nH]n3)n2)CC1)N1N=CC[C@H]1c1cccc(F)c1 [Compound 35, (S)-(4-(4-(1H-pyrazol-3-yl)pyrimidin-2-yl)piperazin-1-yl)(5-(3-fluorophenyl)-4,5-dihydro-1H-pyrazol-1-yl)methanone]",0.1 to 100
7,"N#Cc1cncc([C@@H]2CC=NN2C(=O)N2CCN(c3nccc(-c4cc[nH]n4)n3)CC2)c1 [Compound 38, (S)-5-(1-(4-(4-(1H-pyrazol-3-yl)pyrimidin-2-yl)piperazine-1-carbonyl)-4,5-dihydro-1H-pyrazol-5-yl)nicotinonitrile]",0.1 to 100
8,"CCn1c(C)nn(-c2nc(N3CCN(C(=O)N4N=CC[C@H]4c4cc(F)cc(F)c4)CC3)ncc2F)c1=O [Compound 98, (S)-2-(2-(4-(5-(3,5-difluorophenyl)-4,5-dihydro-1H-pyrazole-1-carbonyl)piperazin-1-yl)-5-fluoropyrimidin-4-yl)-4-ethyl-5-methyl-2,4-dihydro-3H-1,2,4-triazol-3-one]",0.1 to 100
9,"Cc1cn(-c2nc(N3CCN(C(=O)N4N=CC[C@H]4c4cc(F)cc(C#N)c4)CC3)ncc2F)c(C#N)n1 [Compound 16, (S)-1-(2-(4-(5-(3-cyano-5-fluorophenyl)-4,5-dihydro-1H-pyrazole-1-carbonyl)piperazin-1-yl)-5-fluoropyrimidin-4-yl)-4-methyl-1H-imidazole-2-carbonitrile]",0.1 to 100
10,"Cc1nn(CC(N)=O)cc1-c1nc(N2CCN(C(=O)N3N=CC[C@H]3c3cc(F)cc(F)c3)CC2)ncc1F [Compound 18, (S)-2-(4-(2-(4-(5-(3,5-difluorophenyl)-4,5-dihydro-1H-pyrazole-1-carbonyl)piperazin-1-yl)-5-fluoropyrimidin-4-yl)-3-methyl-1H-pyrazol-1-yl)acetamide]",0.1 to 100
11,"Cn1ccc(-c2nc(N3CCN(C(=O)N4N=CC[C@H]4c4cc(F)cc(F)c4)CC3)ncc2F)n1 [Compound 27, (S)-(5-(3,5-difluorophenyl)-4,5-dihydro-1H-pyrazol-1-yl)(4-(5-fluoro-4-(1-methyl-1H-pyrazol-3-yl)pyrimidin-2-yl)piperazin-1-yl)methanone]",0.1 to 100
12,"O=C(N1CCN(c2ncc(F)c(-c3cc[nH]n3)n2)CC1)N1N=CC[C@H]1c1cc(F)cc(F)c1 [Compound 7, (S)-(5-(3,5-difluorophenyl)-4,5-dihydro-1H-pyrazol-1-yl)(4-(5-fluoro-4-(1H-pyrazol-3-yl)pyrimidin-2-yl)piperazin-1-yl)methanone]",0.1 to 100
13,"COc1cc(-c2nc(N3CCN(C(=O)N4N=CC[C@H]4c4cc(F)cc(F)c4)CC3)ncc2F)nc(OC)n1 [Compound 19, (S)-(5-(3,5-difluorophenyl)-4,5-dihydro-1H-pyrazol-1-yl)(4-(5-fluoro-2′,6′-dimethoxy-[4,4′-bipyrimidin]-2-yl)piperazin-1-yl)methanone]",0.1 to 100
14,"O=C(O)c1c[nH]c(-c2nc(N3CCN(C(=O)N4N=CC[C@H]4c4cc(F)cc(F)c4)CC3)ncc2F)c1 [Compound 21, (S)-5-(2-(4-(5-(3,5-difluorophenyl)-4,5-dihydro-1H-pyrazole-1-carbonyl)piperazin-1-yl)-5-fluoropyrimidin-4-yl)-1H-pyrrole-3-carboxylic acid]",0.1 to 100

# Same assay, conditions: Homo sapiens; HT-29 cells, TNF-α 10 ng/ml + SMAC mimetic 6 μM + zVAD-FMK 10 μM, 20 hours; geometric mean, 10 points in duplicate; read-out: EC50 (Cell activity; Necrosis/Necroptosis Inhibitory Activity, Compounds 143-323)
row,Compound,EC50 [nM]
1,Cc1nnc(-c2nc(N3CCN(C(=O)N4N=CCC4c4ncccc4Cl)CC3)ncc2F)s1 (stereo not drawn) [Compound 210],0.1 to 100
2,"Cc1nc(C)n(-c2nc(N3CCN(C(=O)N4N=CC[C@H]4c4ncc(C)s4)CC3)ncc2F)n1 [Compound 241, (S)-(4-(4-(3,5-dimethyl-1H-1,2,4-triazol-1-yl)-5-fluoropyrimidin-2-yl)piperazin-1-yl)(5-(5-methylthiazol-2-yl)-4,5-dihydro-1H-pyrazol-1-yl)methanone]",0.1 to 100
3,"Cc1nnc(-c2nc(N3CCN(C(=O)N4N=CC[C@H]4c4cc(F)cc(F)c4)CC3)ncc2F)o1 [Compound 187, (S)-(5-(3,5-difluorophenyl)-4,5-dihydro-1H-pyrazol-1-yl)(4-(5-fluoro-4-(5-methyl-1,3,4-oxadiazol-2-yl)pyrimidin-2-yl)piperazin-1-yl)methanone]",0.1 to 100
4,"Cc1c(-c2nc(N3CCN(C(=O)N4N=CC[C@H]4c4cc(F)cc(C#N)c4)CC3)ncc2F)c(CO)nn1C [Compound 165, (S)-3-fluoro-5-(1-(4-(5-fluoro-4-(3-(hydroxymethyl)-1,5-dimethyl-1H-pyrazol-4-yl)pyrimidin-2-yl)piperazine-1-carbonyl)-4,5-dihydro-1H-pyrazol-5-yl)benzonitrile]",0.1 to 100
5,"Cc1nn(-c2nc(N3CCN(C(=O)N4N=CC[C@H]4c4cc(F)cc(C#N)c4)CC3)ncc2F)c(C)c1NC(=O)C1CC1 [Compound 192, (S)—N-(1-(2-(4-(5-(3-cyano-5-fluorophenyl)-4,5-dihydro-1H-pyrazole-1-carbonyl)piperazin-1-yl)-5-fluoropyrimidin-4-yl)-3,5-dimethyl-1H-pyrazol-4-yl)cyclopropanecarboxamide]",0.1 to 100
6,"Cc1ncn(-c2nc(N3CCN(C(=O)N4N=CC[C@H]4c4cccc(F)c4)CC3)ncc2F)n1 [Compound 310, (S)-(4-(5-fluoro-4-(3-methyl-1H-1,2,4-triazol-1-yl)pyrimidin-2-yl)piperazin-1-yl)(5-(3-fluorophenyl)-4,5-dihydro-1H-pyrazol-1-yl)methanone]",0.1 to 100
7,"Cc1ncn(-c2nc(N3CCN(C(=O)N4N=CC[C@H]4c4cncc(F)c4)CC3)ncc2F)n1 [Compound 311, (S)-(4-(5-fluoro-4-(3-methyl-1H-1,2,4-triazol-1-yl)pyrimidin-2-yl)piperazin-1-yl)(5-(5-fluoropyridin-3-yl)-4,5-dihydro-1H-pyrazol-1-yl)methanone]",0.1 to 100
8,"Cc1nn(-c2cc(N3CCN(C(=O)N4N=CC[C@H]4c4cc(F)cc(C#N)c4)CC3)ncn2)c(C)c1Br [Compound 278, (S)-3-(1-(4-(6-(4-bromo-3,5-dimethyl-1H-pyrazol-1-yl)pyrimidin-4-yl)piperazine-1-carbonyl)-4,5-dihydro-1H-pyrazol-5-yl)-5-fluorobenzonitrile]",0.1 to 100
9,"Cc1nc(CO)nn1-c1nc(N2CCN(C(=O)N3N=CC[C@H]3c3cc(F)cc(C#N)c3)CC2)ncc1F [Compound 144, (S)-3-fluoro-5-(1-(4-(5-fluoro-4-(3-(hydroxymethyl)-5-methyl-1H-1,2,4-triazol-1-yl)pyrimidin-2-yl)piperazine-1-carbonyl)-4,5-dihydro-1H-pyrazol-5-yl)benzonitrile]",0.1 to 100
10,"Cc1nn(S(C)(=O)=O)c(C)c1-c1nc(N2CCN(C(=O)N3N=CC[C@H]3c3cc(F)cc(C#N)c3)CC2)ncc1F [Compound 208, (S)-3-(1-(4-(4-(3,5-dimethyl-1-(methylsulfonyl)-1H-pyrazol-4-yl)-5-fluoropyrimidin-2-yl)piperazine-1-carbonyl)-4,5-dihydro-1H-pyrazol-5-yl)-5-fluorobenzonitrile]",0.1 to 100
11,"Cc1cnn(C)c1-c1ccc(F)c(N2CCN(C(=O)N3N=CCC3c3cccnc3)CC2)n1 (stereo not drawn) [Compound 295, (4-(6-(1,4-dimethyl-1H-pyrazol-5-yl)-3-fluoropyridin-2-yl)piperazin-1-yl)(5-(pyridin-3-yl)-4,5-dihydro-1H-pyrazol-1-yl)methanone]",0.1 to 100
12,"Cc1nn(-c2cc(N3CCN(C(=O)N4N=CC[C@H]4c4cncc(F)c4)CC3)ncn2)c(C)c1C#N [Compound 286, (S)-1-(6-(4-(5-(5-fluoropyridin-3-yl)-4,5-dihydro-1H-pyrazole-1-carbonyl)piperazin-1-yl)pyrimidin-4-yl)-3,5-dimethyl-1H-pyrazole-4-carbonitrile]",0.1 to 100
